Values quoted from earlier work, collected in patent publication US8633323B2, “Process for preparing bis(thiohydrazide amides)” (Synta Pharmaceuticals Corp., priority 2008, dated 2014).

Legend:
[1] = tested on: stage 1V metastatic melanoma; details: in combination with Taxol, in relation to patients treated with Taxol alone; patients suffering from stage 1V metastatic melanoma
[2] = background statement: effective administration has been challenging

solubility [2]: low solubility
SMILES: CN(NC(=O)CC(=O)NN(C)C(=S)c1ccccc1)C(=S)c1ccccc1 [N-malonyl-bis(N′-methyl-N′-thiobenzoylhydrazide)]
time to progress [1]: increase the time to progress
